Consider eleven molecules from patent US8883763B2 (Universite Joseph Fourier, priority 2010, dated 2014).

The test system of data set [1] is PP1 and PP2A. Particulars: cited from earlier work.
Data set [2] deals with HeLa cells. Briefly: Comparative tests with INH2BP: antiproliferative activity. The data set is classed as cell-based, human. Conditions: 50 μM. On the procedure:
The cells were seeded in 96-well plates (1,000 per well) and incubated with different concentrations of compound 6 (1 nM to 100 μM), for 5 days (120 hours). At the end of this incubation, Hoechst 33342 (1 μg/ml) was added to the culture medium and the live cells were counted under a fluorescence microscope (Zeiss Axiovert 200M). The data represents the average of two independent experiments during which 10 fields chosen at random were analyzed for each concentration of compound 6, themselves produced in triplicate.

Data set [3] has as its target T1, PP1α (PP1CA) (Oryctolagus cuniculus, UniProt P62139).
T1 construct: purchased New England Biolabs P0754
Nature of the data set: Protein phosphatase test (PP1 activity, DiFMUP fluorescent substrate). The data set is classed as biochemical. Conditions: PP1CA at 80 mU, fluorescent substrate (50 μM), molecules from 50 μM to 50 nM; read-out: PP1 Inhibition IC50. The method, boiled down: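 PP1α (30 or 80 mU) in 100 mM Tris-HCl pH 7.5, 4 mM DTT, 0.2 mM EDTA, 0.5 mM MnCl2 was preincubated 15 min with compound (50 μM to 50 nM), then given 60 μM DiFMUP for 20 min at 37 °C. Phosphatase activity was read as fluorescence at 355-460 nm, three times in duplicate.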

Data set [4] has as its system HMEC cells. Nature of the data set: Proliferation of HMEC cells (GI50). Format: cell-based. Conditions: Homo sapiens, 120 h, 50 μM to 1 nM for 5 days. The method, boiled down:
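Cells seeded at 1,000/well (10% confluence) and exposed 5 days (120 h) to compound from 1 nM up to 50–100 μM. Live cells counted by Hoechst 33342 staining under fluorescence microscopy; GI50 is concentration halving proliferation versus control, mean of two triplicate experiments.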

For data set [5], the system named is bovine brain tubulin. Nature of the data set: In vitro tubulin polymerization test (turbidimetry at 350 nm). Format: biochemical. Particulars: molecules at 50 μM, calculated at t=3000 s, DMSO control = 100%. The method, boiled down:
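Bovine brain tubulin was assembled at 37 °C in BRB80 (80 mM K-PIPES pH 6.8, 1 mM MgCl2, 1 mM EGTA) with 1 mM GTP. The 50 μM tests used compounds at 50 μM, run in triplicate. Turbidity at 350 nm was read at t=3000 s and expressed relative to control taken as 100%.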

In data set [6] the test system is HeLa cells. Nature of the data set: Indirect immunofluorescence: effect on HeLa cells (mitotic arrest, microtubule depolymerization). The data set is classed as cell-based, human. Also noted: key to Effect on Hela at 25 μM / Effect on Hela at 100 μM / Effect on Hela at 50 and 100 μM / Effect on Hela at 50 μM: —: −: no activity on the cells at 25 μM (if there is an effect at high concentrations, this is specified in the table).; *: weak activity (MA and/or slight depolymerization of the MTs and/or slight inhibition of proliferation),; **: average activity (MA and/or moderate depolymerization of the MTs and/or moderate inhibition of proliferation),; ***: strong activity (MA and/or pronounced depolymerization of the MTs and/or pronounced inhibition of proliferation),; ****: very strong activity (MA and/or very pronounced depolymerization of the MTs and/or strong inhibition of proliferation). Conditions: 25 μM, 24 hours; mitotic index and/or depolymerization of the MTs. The method, boiled down:
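HeLa cells exposed 24 h to compound (100 μM to 50 nM; primary series 1–10 μM), DMSO controls. PFA/glutaraldehyde-fixed cells immunostained for α-tubulin, actin (phalloidin) and DNA (Hoechst); fluorescence microscopy scored phenotypes and mitotic index, with mitotic index and/or MT depolymerization evaluated at 25 μM.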

Data set [7] deals with PP1C. Nature of the data set: Affinity chromatography on immobilized compound and immunoblotting. Format: binding, Xenopus laevis. Particulars: Xenopus egg extracts; immunoblot anti-PP1C and anti-PP2A; PP2A only traces as in control. On the procedure: Xenopus egg cytoplasmic extracts were prepared from unfertilized Xenopus laevis eggs according to the method described (Desai A et al., Methods Cell Biol. 1999; 61: pp 385-412).
The molecule 37 was immobilized on a sepharose resin activated by an N-hydroxysuccinimide (NHS) group (GE Healthcare #17-0906-01) as follows: 100 μg of the molecule 37 per ml of NHS Sepharose in PBS, pH 8.3, for 1 hour at ambient temperature. The sepharose coupled with molecule 37 was designated “compound 6” resin, whereas in parallel, another “control” resin was produced with incubation in 0.5 M Monoethanolamine (MEA), pH 8.3, under the same conditions, in order to neutralize the NHS functions. After several washings with PBS, pH 8.3, the NHS functions remaining free were blocked with 0.5 M MEA for 30 minutes. Once they had been thoroughly washed with PBS, the “control” and “compound 6” resins were incubated with 1 ml of Xenopus egg extracts diluted 1:1 in CSF-XB buffer containing protease inhibitors (#1 873 580 Roche®), for 1 hour under stirring at 4° C. After 2 washings with PBST, the proteins of the extract remaining attached were eluted with 100 μl of electrophoresis SDS charge buffer (Laemmli, U.K., Cleavage of structural proteins during the assembly of the head of bacteriophage T4. Nature 1970; 227, 680-685) enriched with 6M urea. […]
(In general: Immunoblotting shows a protein as a band on a membrane.)

For data set [8] the following is noted: trials discontinued; cited from earlier work.
The conditions of data set [9]: due to its structural instability; cited from earlier work.

T1 sequence (P62139 whole entry): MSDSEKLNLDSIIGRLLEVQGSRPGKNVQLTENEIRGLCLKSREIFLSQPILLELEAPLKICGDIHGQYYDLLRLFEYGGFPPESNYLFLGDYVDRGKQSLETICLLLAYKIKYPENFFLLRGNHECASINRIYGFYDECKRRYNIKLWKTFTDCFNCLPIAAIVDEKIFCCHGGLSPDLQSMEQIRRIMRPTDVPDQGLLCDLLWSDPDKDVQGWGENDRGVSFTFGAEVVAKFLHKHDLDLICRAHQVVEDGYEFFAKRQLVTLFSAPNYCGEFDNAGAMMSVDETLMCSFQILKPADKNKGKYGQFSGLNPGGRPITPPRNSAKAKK

As to Phosphatidic acid, in [1], the “selectivity for PP1 relative to PP2A” value is recorded as 100 times.

Regarding `Nc1ccc2oc(=O)ccc2c1I` [INH2BP, 5-iodo-6-amino-1,2-benzopyrone], the “antiproliferative activity on HeLa cells” value in data set [2] was “no antiproliferative activity”.

For the molecule `CO[C@H]([C@H](O)CC(=O)[C@@H](C)[C@@H](O)CC[C@@H](C)[C@@H]1O[C@]2(CC[C@@H](C)[C@H](CC[C@H](C)C(C)=O)O2)CC[C@@H]1C)[C@H](OC(=O)C[C@@H](O)C1=C(C)C(=O)OC1=O)C(C)C` [tautomycin], the “selectivity for PP1 relative to PP2A” value in data set [1] was 4 times.

For tautomycetin, the “selectivity for PP1 relative to PP2A” value in data set [1] was 40 times.

A word on the IC50: it is the concentration at which inhibition is half-maximal. As usually defined, the GI50 is the concentration at which growth is held to half of that of the control. Regarding `COc1ccc2c([N+](=O)[O-])c(-c3ccc(OCCOCCOCCOCCN)cc3)[nH]c(=O)c2c1` [Compound 37, 3-(4-(2-(2-(2-(2-Aminoethoxy)ethoxy)ethoxy)ethoxy)phenyl)-7-methoxy-4-nitroisoquinolin-1(2H)-one], in data set [3], the IC50 was over 50 µM. Also, the GI50 in [4] was in the range of 25 to 50 µM. The Tubulin polymerization inhibition entry in [5] is “— ((−) signifies that the molecule induces little or no tubulin assembly inhibition in vitro: 0+ or − −5% of the DMSO control.)”. For the same molecule, the “Effect on Hela at 25 μM” value in data set [6] was “—”. The “retention of PP1C by compound immobilized on sepharose resin” value in [7] is “specifically retains PP1C”.

With `C[C@@]12C(=O)OC(=O)[C@]1(C)[C@H]1CC[C@@H]2O1` [cantharidin], in [8], the “toxicity in clinical trials” value is recorded as “too-high nephrotoxicity”.

Regarding `C[C@@](O)(/C=C/[C@H]1CC=CC(=O)O1)[C@@H](C[C@@H](O)\C=C/C=C\C=C\CO)OP(=O)(O)O` [fostriecin], the “selectivity for PP2A” value in [1] (PP2A relative to PP1) was 40,000 times. Moreover, the “activity in phase I clinical trial” value in [9] was “inactive”.

The term melting point denotes the temperature of the solid-liquid transition. As for `C#Cc1ccc(-c2[nH]c(=O)c3cc(OC)ccc3c2[N+](=O)[O-])cc1` [Compound 36, 3-(4-Ethynylphenyl)-7-methoxy-4-nitroisoquinolin-1(2H)-one], the melting point was 246 to 248 °C. Moreover, the IC50 in data set [3] was in the range of 10 to 24 µM. The GI50 in [4] was at most 0.1 µM. Further, the Tubulin polymerization inhibition result in data set [5] is “+++ ((+++) signifies that the molecule induces tubulin assembly inhibition in vitro of more than 50% with respect to the DMSO control.)”. Besides, the “Effect on Hela at 25 μM” value in [6] is on record as “****”.

Regarding `COc1ccc(-c2[nH]c(=O)c3cc(OC)ccc3c2-n2cccc2)cc1` [Compound 39, 4-(Pyrrol-1-yl)-7-methoxy-3-(4-methoxyphenyl)isoquinoline-1(2H)-one], the melting point was found to be 238 °C. Also, the IC50 in data set [3] is 10 to 24 µM. Moreover, in data set [4], the GI50 is 0.1 to 1 µM. In addition, the Tubulin polymerization inhibition entry in data set [5] is “+ ((+) signifies that the molecule induces tubulin assembly inhibition in vitro comprised between 6 and 25% of the DMSO control.)”. Further, in data set [6], the “Effect on Hela at 25 μM” value is “—”.

With `COc1ccc(-c2[nH]c(=O)c3cc(OC)ccc3c2N2CCOCC2)cc1` [Compound 49, 7-Methoxy-3-(4-methoxyphenyl)-4-morpholinoisoquinolin-1(2H)-one], the melting point amounted to 139 °C. Further, the IC50 in data set [3] was over 50 µM. In data set [4], this molecule registered a GI50 of 0.1 to 1 µM. Also, the Tubulin polymerization inhibition entry in data set [5] is “+ ((+) signifies that the molecule induces tubulin assembly inhibition in vitro comprised between 6 and 25% of the DMSO control.)”. Moreover, the “Effect on Hela at 25 μM” value in [6] is given as “**”.

As for `COc1ccc(-c2[nH]c(=O)c3cc(OC)ccc3c2NC=O)cc1` [Compound 24, N-(7-Methoxy-3-(4-methoxyphenyl)-1-oxo-1,2-dihydroisoquinoline-4-yl)methanamide], the melting point is over 270 °C. Besides, in data set [3], the concentration for half-maximal inhibition (IC50) was over 50 µM. Further, the GI50 in data set [4] was in the range of 1 to 25 µM. The Tubulin polymerization inhibition entry in data set [5] was “+ ((+) signifies that the molecule induces tubulin assembly inhibition in vitro comprised between 6 and 25% of the DMSO control.)”. The “Effect on Hela at 25 μM” value in [6] was “****”.
